Earlier results as cited in patent publication US10449179B2, “Stable veterinary anthelmintic formulations” (DONAGHYS LIMITED, priority 2014, dated 2019).

Details: LD50 literature averages for three animal species, human equivalent, safety factor 10

C[S+](C)[O-] [DMSO, dimethylsulfoxide]
safety relative to N-methylpyrrolidone (acute oral LD50): approximately 5 times
